What was measured:
[1] = target: T1, MAGL (Mus musculus, UniProt O35678); test: In vitro competitive activity-based protein profiling (mouse), MAGL gel band; format: biochemical; conditions: for IC50: mouse; for inhibition at 1 µM: read-out: MAGL % inh. 1 μM
T1 construct: Proteomes (mouse brain membrane fraction or cell lysates); from tissue; host or cells: mouse brain membrane fraction (or cell lysates)
T1 sequence (O35678 1-303): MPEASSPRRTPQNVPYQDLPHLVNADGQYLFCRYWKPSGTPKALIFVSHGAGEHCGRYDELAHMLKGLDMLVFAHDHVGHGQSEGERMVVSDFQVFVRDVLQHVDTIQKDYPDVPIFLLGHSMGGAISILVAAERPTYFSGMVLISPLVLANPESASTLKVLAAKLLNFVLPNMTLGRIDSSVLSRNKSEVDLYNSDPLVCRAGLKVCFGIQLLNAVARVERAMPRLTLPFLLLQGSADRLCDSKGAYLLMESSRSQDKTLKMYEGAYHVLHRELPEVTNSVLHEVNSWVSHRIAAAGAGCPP
Outline: (§1)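 Mouse brain membrane proteome or cell lysate (1.0 mg/mL total protein) was preincubated with varying inhibitor concentrations for 30 min at 37 °C, then labelled for 30 min at 37 °C with FP-Rh or HT-01 (50 μM stock in DMSO). Activity was read as fluorescent band intensity after SDS-PAGE.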

[2] = target: T2, FAAH (Mus musculus, UniProt O08914); test: In vitro competitive activity-based protein profiling (mouse), FAAH gel band; format: biochemical; conditions: for IC50: mouse; for inhibition at 1 µM: read-out: FAAH % inh. 1 μM
T2 construct: Proteomes (mouse brain membrane fraction or cell lysates); from tissue; host or cells: mouse brain membrane fraction (or cell lysates)
T2 sequence (O08914 1-579): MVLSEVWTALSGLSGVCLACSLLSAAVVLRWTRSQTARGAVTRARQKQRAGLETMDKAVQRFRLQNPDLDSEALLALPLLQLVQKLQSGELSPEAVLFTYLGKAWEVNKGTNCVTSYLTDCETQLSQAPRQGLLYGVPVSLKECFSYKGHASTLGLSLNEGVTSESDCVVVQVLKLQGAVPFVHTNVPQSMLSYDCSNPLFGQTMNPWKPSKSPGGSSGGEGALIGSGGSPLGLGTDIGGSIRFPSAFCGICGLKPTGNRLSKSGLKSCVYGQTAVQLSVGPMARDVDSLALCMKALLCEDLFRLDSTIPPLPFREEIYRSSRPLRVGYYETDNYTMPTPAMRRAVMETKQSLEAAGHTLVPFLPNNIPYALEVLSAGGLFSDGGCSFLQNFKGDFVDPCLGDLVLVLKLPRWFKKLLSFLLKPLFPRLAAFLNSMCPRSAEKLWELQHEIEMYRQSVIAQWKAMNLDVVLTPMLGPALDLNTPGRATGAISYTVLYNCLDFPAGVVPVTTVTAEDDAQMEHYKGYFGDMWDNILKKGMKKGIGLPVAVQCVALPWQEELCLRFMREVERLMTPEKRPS
Outline: as §1

[3] = target: T1, MAGL; test: Mouse brain proteomes from inhibitor treated mice (oral gavage, sacrificed 4 h after administration); format: in vivo; conditions: read-out: MAGL % inh. 5 mg/kg
Description: Compounds are tested to assess their MAGL and other serine hydrolase activity using the following in vitro and in vivo assays.
Preparation of Mouse Brain Proteomes from Inhibitor Treated Mice.
Inhibitors were administered to wild-type C57Bl/6J by oral gavage in a vehicle of polyethylene glycol. Each animal was sacrificed 4 h following administration and brain proteomes were prepared and analyzed according to previously established methods (See Niphakis, M. J., et al. (2011) ACS Chem. Neurosci. and Long, J. Z., et al. Nat. Chem. Biol. 5:37-44)

Row | IC50 [1] [nM] | inhibition at 1 µM [1] [%] | IC50 [2] [nM] | inhibition at 1 µM [2] [%] | inhibition at 5 mg/kg [3] [%] | SMILES
1 | ≤ 100 | ≥ 75 | 1000 to 10000 | 0 to 25 | 25 to 50 | CC(=O)Nc1ccn(C(=O)N2CCN(Cc3cc(Oc4cncnc4)cc(C(F)(F)F)c3)CC2)n1 [Example 74, N-(1-(4-(3-(pyrimidin-5-yloxy)-5-(trifluoromethyl)benzyl)piperazine-1-carbonyl)-1H-pyrazol-3-yl)acetamide]
2 | ≤ 100 | ≥ 75 | 1000 to 10000 | 0 to 25 | 0 to 25 | CC(=O)Nc1ccn(C(=O)N2CCN(Cc3ccc(Cl)cc3-c3nnn[nH]3)CC2)n1 [Example 262, N-(1-(4-(4-chloro-2-(1H-tetrazol-5-yl)benzyl)piperazine-1-carbonyl)-1H-pyrazol-3-yl)acetamide]
3 | ≤ 100 | ≥ 75 | 1000 to 10000 | 0 to 25 | 0 to 25 | CC(=O)Nc1ccn(C(=O)N2CCC3(CCCN3Cc3cc(Oc4cncnc4)cc(C(F)(F)F)c3)CC2)n1 [Example 84, N-(1-(1-(3-(pyrimidin-5-yloxy)-5-(trifluoromethyl)benzyl)-1,8-diazaspiro[4.5]decane-8-carbonyl)-1H-pyrazol-3-yl)acetamide]
4 | ≤ 100 | ≥ 75 | 1000 to 10000 | 0 to 25 | 0 to 25 | CC(=O)Nc1ccn(C(=O)N2CCC3(CCCN3Cc3ccc(C(F)(F)F)cc3N3CCOCC3)CC2)n1 [Example 10, N-(1-(1-(2-morpholino-4-(trifluoromethyl)benzyl)-1,8-diazaspiro[4.5]decane-8-carbonyl)-1H-pyrazol-3-yl)acetamide]
5 | ≤ 100 | ≥ 75 | 1000 to 10000 | 0 to 25 | 0 to 25 | CC(=O)Nc1ccn(C(=O)N2CCN(Cc3ccc(Cl)cc3N3CC4COCC4C3)CC2)n1 (centres unmarked) [Example 60, N-(1-(4-(4-chloro-2-(dihydro-1H-furo[3,4-c]pyrrol-5(3H,6H,6aH)-yl)benzyl)piperazine-1-carbonyl)-1H-pyrazol-3-yl)acetamide]
6 | ≤ 100 | ≥ 75 | 1000 to 10000 | 0 to 25 | ≥ 75 | CS(=O)(=O)Nc1ccn(C(=O)N2CCN(Cc3ccc(Cl)cc3N3CCCC3)CC2)n1 [Example 127, N-(1-(4-(4-chloro-2-(pyrrolidin-1-yl)benzyl)piperazine-1-carbonyl)-1H-pyrazol-3-yl) methanesulfonamide]
7 | ≤ 100 | ≥ 75 | 1000 to 10000 | 0 to 25 | 0 to 25 | CC(=O)Nc1ccn(C(=O)N2CCC3(CCCN3Cc3ccc(Cl)cc3N3CCC(F)CC3)CC2)n1 [Example 18, N-(1-(1-(4-chloro-2-(4-fluoropiperidin-1-yl)benzyl)-1,8-diazaspiro[4.5]decane-8-carbonyl)-1H-pyrazol-3-yl)acetamide]

Continued, compound first:

Row | SMILES | IC50 [1] [nM] | inhibition at 1 µM [1] [%] | IC50 [2] [nM] | inhibition at 1 µM [2] [%] | inhibition at 5 mg/kg [3] [%]
8 | CC(=O)Nc1ccn(C(=O)N2CCC3(CCCN3Cc3ccc(C(F)(F)F)cc3Oc3nc4ccccc4s3)CC2)n1 [Example 85, N-(1-(1-(2-(benzo[d]thiazol-2-yloxy)-4-(trifluoromethyl)benzyl)-1,8-diazaspiro[4.5]decane-8-carbonyl)-1H-pyrazol-3-yl)acetamide] | ≤ 100 | ≥ 75 | 1000 to 10000 | 0 to 25 | 0 to 25
9 | CC(=O)Nc1ccn(C(=O)N2CCN(Cc3ccc(C(F)(F)F)cc3N3CCCC3)CC2)n1 [Example 1, N-(1-(4-(2-(pyrrolidin-1-yl)-4-(trifluoromethyl)benzyl)piperazine-1-carbonyl)-1H-pyrazol-3-yl)acetamide] | ≤ 100 | ≥ 75 | 1000 to 10000 | 0 to 25 | ≥ 75
10 | CC(=O)Nc1ccn(C(=O)N2CCC3(CCCN3Cc3ccc(C(F)(F)F)cc3Oc3cncnc3)CC2)n1 [Example 83, N-(1-(1-(2-(pyrimidin-5-yloxy)-4-(trifluoromethyl)benzyl)-1,8-diazaspiro[4.5]decane-8-carbonyl)-1H-pyrazol-3-yl)acetamide] | ≤ 100 | ≥ 75 | 1000 to 10000 | 0 to 25 | 0 to 25
11 | CC(=O)Nc1ccn(C(=O)N2CCC3(CCCN3Cc3cc(N4CCCC4)cc(C(F)(F)F)c3)CC2)n1 [Example 61, N-(1-(1-(3-(pyrrolidin-1-yl)-5-(trifluoromethyl)benzyl)-1,8-diazaspiro[4.5]decane-8-carbonyl)-1H-pyrazol-3-yl)acetamide] | ≤ 100 | ≥ 75 | 1000 to 10000 | 0 to 25 | 0 to 25
12 | CS(=O)(=O)Nc1ccn(C(=O)N2CCN(Cc3cccc(Cl)c3N3CC[C@H](CF)C3)CC2)n1 [Example 121, (S)-N-(1-(4-(3-chloro-2-(3-(fluoromethyl)pyrrolidin-1-yl)benzyl)piperazine-1-carbonyl)-1H-pyrazol-3-yl) methanesulfonamide] | ≤ 100 | ≥ 75 | 1000 to 10000 | 0 to 25 | 50 to 75
13 | CC(=O)Nc1ccn(C(=O)N2CCN(Cc3ccc(Cl)cc3N3CCCC3)CC2)n1 [Example 5, N-(1-(4-(4-chloro-2-(pyrrolidin-1-yl)benzyl)piperazine-1-carbonyl)-1H-pyrazol-3-yl)acetamide] | ≤ 100 | ≥ 75 | 1000 to 10000 | 0 to 25 | ≥ 75
14 | CC(=O)Nc1ccn(C(=O)N2CCN(Cc3ccc(C(F)(F)F)cc3OC3CCN(C4CC4)CC3)CC2)n1 [Example 71, N-(1-(4-(2-(1-cyclopropylpiperidin-4-yloxy)-4-(trifluoromethyl)benzyl)piperazine-1-carbonyl)-1H-pyrazol-3-yl)acetamide] | ≤ 100 | ≥ 75 | 1000 to 10000 | 0 to 25 | 25 to 50
15 | CCc1cc(CN2CCCC23CCN(C(=O)n2ccc(NC(C)=O)n2)CC3)ccc1F [Example 95, N-(1-(1-(3-ethyl-4-fluorobenzyl)-1,8-diazaspiro[4.5]decane-8-carbonyl)-1H-pyrazol-3-yl)acetamide] | ≤ 100 | ≥ 75 | 1000 to 10000 | 0 to 25 | ≥ 75
16 | CC(=O)Nc1ccn(C(=O)N2CCN(Cc3ccc(Cl)cc3N3CCC(C(=O)O)CC3)CC2)n1 [Example 248, 1-(2-((4-(3-acetamido-1H-pyrazole-1-carbonyl)piperazin-1-yl)methyl)-5-chlorophenyl) piperidine-4-carboxylic acid] | ≤ 100 | ≥ 75 | 1000 to 10000 | 0 to 25 | 0 to 25
17 | CC(=O)Nc1ccn(C(=O)N2CCN(Cc3ccc(Cl)cc3N3CCN(C(C)=O)CC3)CC2)n1 [Example 53, N-(1-(4-(2-(4-acetylpiperazin-1-yl)-4-chlorobenzyl)piperazine-1-carbonyl)-1H-pyrazol-3-yl)acetamide] | ≤ 100 | ≥ 75 | 1000 to 10000 | 0 to 25 | 0 to 25
18 | CC(=O)Nc1ccn(C(=O)N2CCN(Cc3ccc(C(F)(F)F)cc3N3CC4COCC4C3)CC2)n1 (centres unmarked) [Example 49, N-(1-(4-(2-(dihydro-1H-furo[3,4-c]pyrrol-5(3H,6H,6aH)-yl)-4-(trifluoromethyl)benzyl)piperazine-1-carbonyl)-1H-pyrazol-3-yl)acetamide] | ≤ 100 | ≥ 75 | 1000 to 10000 | 0 to 25 | 0 to 25
19 | CC(=O)Nc1ccn(C(=O)N2CCC3(CCCN3Cc3ccc(Cl)cc3N3CC4CCC(C3)O4)CC2)n1 [Example 34, N-(1-(1-(2-(8-oxa-3-azabicyclo[3.2.1]octan-3-yl)-4-chlorobenzyl)-1,8-diazaspiro[4.5]decane-8-carbonyl)-1H-pyrazol-3-yl)acetamide] | ≤ 100 | ≥ 75 | 1000 to 10000 | 0 to 25 | 0 to 25

Reference: patent publication US10519134B2, “Pyrazole compounds and methods of making and using same” (Lundbeck La Jolla Research Center, Inc., priority 2015, dated 2019)
